Measurements taken from PubChem BioAssay AID449740 (Southern Research Specialized Biocontainment Screening …, 2010).
The source made the active and inactive calls. The rule behind the calls is not given here.

How the values were obtained:
[1] = tested on: Salmonella Typhi WT vs phoP-, polymyxin IC50 shift, OD600 24 h; test: polymyxin IC50 shift, round 3, mechanism study, late-stage follow-up (AID 449740)
[2] = as above; settings: Salmonella Typhi WT vs phoP-, polymyxin IC50 shift, OD600 24 h, at 150 µM, stronger effect = higher value
[3] = measured here: phoP- strain shift
[4] = measured here: wild-type strain shift

SMILES	IC50 [1] [µM]	polymyxin IC50 shift [2, 3]	polymyxin IC50 shift [2, 4]	polymyxin IC50 shift difference WT minus phoP- [2]
CCn1cc(C(=O)O)c(=O)c2cc(F)c(N3CCN(C(=S)Nc4ccccc4C)CC3)cc21	19	-2.44	4.87	
CCn1cc(C(=O)O)c(=O)c2cc(F)c(N3CCN(C(=S)Nc4ccccc4OC)CC3)cc21	19	-0.353	4.08	
O=C(Nc1ccc(I)cc1)N1CCCN(Cc2ccccc2F)C1		5.34	-4.04	-9.38 (inactive)
O=C(Nc1ccc(Cl)cc1)N1CCCN(Cc2ccc(Br)cc2)C1		0.497	-3.36	-3.85 (inactive)
S=C(NCCc1ccc(Cl)cc1)Nc1ccncc1		6.57	5.55	-1.02 (inactive)
O=C(Nc1ccc(Cl)cc1)N1CCCN(Cc2ccccc2Br)C1		6.73	6.2	-0.534 (inactive)
